From patent publication US11388902B2, “Pesticidally active cyclopropyl methyl amide derivatives” (SYNGENTA PARTICIPATIONS AG, priority 2017, dated 2022)

Experiments:
Format in all cases: in vivo
[1] = tested on: Plutella xylostella (Diamond Back Moth); assay: Plutella xylostella (diamond back moth) artificial diet test; settings: 120 h, application rate of 200 ppm, L2 larvae, 5 days after infestation, in comparison to untreated samples, read-out: effect in at least one of the two categories (mortality or growth inhibition)
Procedure: Example B3: Plutella xylostella (Diamond Back Moth)
(§1) 24-well microtiter plates with artificial diet were treated with aqueous test solutions prepared from 10′000 ppm DMSO stock solutions by pipetting. After drying, the plates were infested with L2 larvae (10 to 15 per well). The samples were assessed for mortality and growth inhibition in comparison to untreated samples 5 days after infestation.

[2] = tested on: Spodoptera littoralis (Egyptian Cotton Leaf Worm); assay: Spodoptera littoralis (Egyptian cotton leaf worm) cotton leaf disc test; settings: foliar, 72 h, application rate of 200 ppm, L1 larvae, 3 days after infestation, in comparison to untreated samples, read-out: control (mortality, anti-feeding effect, or growth inhibition)
Procedure: Example B4: Spodoptera littoralis (Egyptian Cotton Leaf Worm)
Cotton leaf discs were placed onto agar in 24-well microtiter plates and sprayed with aqueous test solutions prepared from 10′000 ppm DMSO stock solutions. After drying the leaf discs were infested with five L1 larvae. The samples were assessed for mortality, anti-feeding effect, and growth inhibition in comparison to untreated samples 3 days after infestation. Control of Spodoptera littoralis by a test sample is given when at least one of the categories mortality, anti-feedant effect, and growth inhibition is higher than the untreated sample.

[3] = tested on: Diabrotica balteata (Corn Root Worm); assay: Diabrotica balteata (corn root worm) on sprayed maize sprouts; settings: 96 h, application rate of 200 ppm, L2 larvae, 4 days after infestation, in comparison to untreated samples, read-out: effect in at least one of the two categories (mortality or growth inhibition)
Procedure: Example B1: Diabrotica balteata (Corn Root Worm)
as §1, with “Maize sprouts placed onto an agar layer in 24-well” for “24-well”, “plates” for “plates with artificial diet”, “spraying.” for “pipetting.”, “(6” for “(10”, “10” for “15”, “4” for “5”

[4] = tested on: Thrips tabaci (Onion Thrips); assay: Thrips tabaci (onion thrips) feeding/contact activity, sunflower leaf discs; settings: foliar, 144 h, application rate of 200 ppm, thrips population of mixed ages, 6 days after infestation
Procedure: Example B6: Thrips tabaci (Onion Thrips) Feeding/Contact Activity
(§2) Sunflower leaf discs were placed on agar in 24-well microtiter plates and sprayed with aqueous test solutions prepared from 10′000 ppm DMSO stock solutions. After drying the leaf discs were infested with a thrips population of mixed ages. The samples were assessed for mortality 6 days after infestation.

[5] = tested on: Myzus persicae (Green Peach Aphid); assay: Myzus persicae (green peach aphid) sucrose solution feeding test; settings: 120 h, test rate of 12 ppm, 5 days after infestation
Excerpt: Example B2: Myzus persicae (Green Peach Aphid)
Test compounds prepared from 10′000 ppm DMSO stock solutions were applied by pipette into 24-well microtiter plates and mixed with sucrose solution. The plates were closed with a stretched Parafilm. A plastic stencil with 24 holes was placed onto the plate and infested pea seedlings were placed directly on the Parafilm. The infested plate was closed with a gel blotting paper and another plastic stencil and then turned upside down. The samples were assessed for mortality 5 days after infestation.

[6] = tested on: Tetranychus urticae (Two-Spotted Spider Mite); assay: Tetranychus urticae (two-spotted spider mite) feeding/contact activity, bean leaf discs; settings: foliar, 192 h, application rate of 200 ppm, 8 days after infestation, read-out: mortality on mixed population (mobile stages)
Procedure: Example B5: Tetranychus urticae (Two-Spotted Spider Mite):Feeding/Contact Activity
as §2, with “Bean” for “Sunflower”, “discs” for “discs were placed”, “were” for “and”, “mite” for “thrips”, “on mixed population (mobile stages) 8” for “6”

Cc1cc(C2=NO[C@@](c3cc(Cl)c(F)c(Cl)c3)(C(F)(F)F)C2)ccc1C(=O)NCC1(C(N)=S)CC1 [Compound B01, N-[(1-carbamothioylcyclopropyl)methyl]-4-[(5S)-5-(3,5-dichloro-4-fluoro-phenyl)-5-(trifluoromethyl)-4H-isoxazol-3-yl]-2-methyl-benzamide]
≥ 80%: percent effect (mortality or growth inhibition) at 200 ppm [1] | percent control (mortality, anti-feedant effect or growth inhibition) at 200 ppm [2] | percent effect (mortality or growth inhibition) at 200 ppm [3] | mortality at 200 ppm [4] | mortality at 12 ppm [5] | mortality at 200 ppm [6]

Cc1cc(C2=NOC(c3cc(Cl)cc(Cl)c3)(C(F)(F)F)C2)ncc1C(=O)NCC1(C#N)CC1 (racemic) [Compound D02, N-[(1-cyanocyclopropyl)methyl]-6-[5-(3,5-dichlorophenyl)-5-(trifluoromethyl)-4H-isoxazol-3-yl]-4-methyl-pyridine-3-carboxamide]
≥ 80%: percent effect (mortality or growth inhibition) at 200 ppm [1] | percent control (mortality, anti-feedant effect or growth inhibition) at 200 ppm [2] | percent effect (mortality or growth inhibition) at 200 ppm [3] | mortality at 200 ppm [4] | mortality at 12 ppm [5] | mortality at 200 ppm [6]

Cc1cc(C2=NO[C@@](c3cc(Cl)c(F)c(Cl)c3)(C(F)(F)F)C2)ccc1C(=O)NCC1(C#N)CC1 [Compound A01, N-[(1-cyanocyclopropyl)methyl]-4-[(5S)-5-(3,5-dichloro-4-fluoro-phenyl)-5-(trifluoromethyl)-4H-isoxazol-3-yl]-2-methyl-benzamide]
≥ 80%: percent effect (mortality or growth inhibition) at 200 ppm [1] | percent control (mortality, anti-feedant effect or growth inhibition) at 200 ppm [2] | percent effect (mortality or growth inhibition) at 200 ppm [3] | mortality at 200 ppm [4] | mortality at 12 ppm [5] | mortality at 200 ppm [6]

Cc1cc(C2=NO[C@@](c3cc(Cl)c(F)c(Cl)c3)(C(F)(F)F)C2)ccc1C(=O)NCC1(C(N)=O)CC1 [Compound C01, N-[(1-carbamoylcyclopropyl)methyl]-4-[(5S)-5-(3,5-dichloro-4-fluoro-phenyl)-5-(trifluoromethyl)-4H-isoxazol-3-yl]-2-methyl-benzamide]
≥ 80%: percent effect (mortality or growth inhibition) at 200 ppm [1] | percent control (mortality, anti-feedant effect or growth inhibition) at 200 ppm [2] | percent effect (mortality or growth inhibition) at 200 ppm [3] | mortality at 200 ppm [4] | mortality at 12 ppm [5] | mortality at 200 ppm [6]

CCOC(=O)N(CC1(C#N)CC1)C(=O)c1ccc(C2=NO[C@@](c3cc(Cl)c(F)c(Cl)c3)(C(F)(F)F)C2)cc1C [Compound F01, ethyl N-[(1-cyanocyclopropyl)methyl]-N-[4-[(5S)-5-(3,5-dichloro-4-fluoro-phenyl)-5-(trifluoromethyl)-4H-isoxazol-3-yl]-2-methyl-benzoyl]carbamate]
≥ 80%: percent effect (mortality or growth inhibition) at 200 ppm [1] | percent control (mortality, anti-feedant effect or growth inhibition) at 200 ppm [2] | percent effect (mortality or growth inhibition) at 200 ppm [3] | mortality at 200 ppm [4] | mortality at 200 ppm [6]

Cc1cc(C2=NO[C@@](c3cc(Cl)c(F)c(Cl)c3)(C(F)(F)F)C2)ccc1C(=O)NC(C)C1(C#N)CC1 (stereo partly drawn) [Compound E01, N-[1-(1-cyanocyclopropyl)ethyl]-4-[(5S)-5-(3,5-dichloro-4-fluoro-phenyl)-5-(trifluoromethyl)-4H-isoxazol-3-yl]-2-methyl-benzamide]
≥ 80%: percent effect (mortality or growth inhibition) at 200 ppm [1] | percent control (mortality, anti-feedant effect or growth inhibition) at 200 ppm [2] | mortality at 200 ppm [4]

N#CC1(CNC(=O)c2ccc(C3=NOC(c4cc(Cl)cc(Cl)c4)(C(F)(F)F)C3)cn2)CC1 (racemic) [Compound D01, N-[(1-cyanocyclopropyl)methyl]-5-[5-(3,5-dichlorophenyl)-5-(trifluoromethyl)-4H-isoxazol-3-yl]pyridine-2-carboxamide]
≥ 80%: percent effect (mortality or growth inhibition) at 200 ppm [1] | percent effect (mortality or growth inhibition) at 200 ppm [3] | mortality at 200 ppm [4]
